From paper PMC6518372, “An enzymatically stable GIP/xenin hybrid peptide restores GIP sensitivity, enhances beta cell function and improves glucose homeostasis in high-fat-fed mice” (Diabetologia, 2016)

Key:
BRIN-BD11 cells [1] = assay: Intracellular Ca2+ in BRIN-BD11 cells (FLIPR Calcium 5); assay type: cell-based, rat; settings: peptide 10^−6 mol/l, 5.6 mmol/l glucose, 5 min, AUC 0–300 s
Procedure: (§1) BRIN-BD11 cells were used to assess the insulin-releasing activity of test peptides, as described previously. This hybrid cell line (ECACC 10033003) was originally generated in-house by electrofusion of a primary culture of New England Deaconess Hospital (NEDH) rat pancreatic islets with RINm5F (a cell line derived from an NEDH rat insulinoma), and has been mycoplasma eradicated. For details of experimental conditions please see ESM Methods. Insulin was measured by radioimmunoassay. We assessed the impact of GIP and neurotensin receptors on (DAla^2)GIP/xenin-8-Gln-induced insulin secretion in BRIN-BD11 cells. Cells were incubated in 5.6 mmol/l glucose with (DAla^2)GIP/xenin-8-Gln (10^−6 mol/l) alone or in combination with the GIP receptor antagonist GIP(6-30)Cex-K^40[Pal] [32] (where Pal is palmitate) or the neurotensin receptor antagonist SR142948A (Sigma, Poole, UK), and insulin secretion determined as described above. In addition, to determine mechanisms, intracellular Ca^2+ was also measured in BRIN-BD11 cells following treatment with test peptides (10^−6 mol/l), using a Flexstation scanning fluorometer (FLIPR Calcium 5 assay kit; Molecular Devices, Sunnyvale, CA, USA), as described previously.

BRIN-BD11 cells [2] = assay: In vitro insulin secretion from BRIN-BD11 cells; assay type: cell-based, rat; settings: 20 min
Procedure: as §1
In vitro insulin release studies Cells were seeded at a density of 150,000 cells/well in 24-well plates (Nunc, Roskilde, Denmark) and allowed to attach overnight at 37 °C. Culture medium was removed and cells were pre-incubated in Krebs–Ringer bicarbonate buffer (containing 0.5% (w/v) BSA, pH 7.4) supplemented with 1.1 mmol/l glucose for 40 min at 37 °C. Following the pre-incubation, experiments (n=8) were performed in presence of glucose (5.6 or 16.7 mmol/l) with a […]
incubations, aliquots of assay buffer were collected from each well and stored at -20 °C prior to […]
Acute in vivo effects in lean mice For food intake studies, fasted (18 h) mice were given intraperitoneal (i.p) injections of peptides at a dose of 25, 100 or 250 nmol/kg bw. Mice were then allowed free access to normal chow for 180 mins and cumulative food intake measured. […]

purified porcine DPP-4 = purified porcine DPP-4 (Sus scrofa, UniProt P22411); assay: DPP-4 degradation / in vitro DPP-4 half-life; settings: 20 μg peptide, 5 mU purified DPP-4, up to 12 h, HPLC
Chain of purified porcine DPP-4 (P22411 whole entry): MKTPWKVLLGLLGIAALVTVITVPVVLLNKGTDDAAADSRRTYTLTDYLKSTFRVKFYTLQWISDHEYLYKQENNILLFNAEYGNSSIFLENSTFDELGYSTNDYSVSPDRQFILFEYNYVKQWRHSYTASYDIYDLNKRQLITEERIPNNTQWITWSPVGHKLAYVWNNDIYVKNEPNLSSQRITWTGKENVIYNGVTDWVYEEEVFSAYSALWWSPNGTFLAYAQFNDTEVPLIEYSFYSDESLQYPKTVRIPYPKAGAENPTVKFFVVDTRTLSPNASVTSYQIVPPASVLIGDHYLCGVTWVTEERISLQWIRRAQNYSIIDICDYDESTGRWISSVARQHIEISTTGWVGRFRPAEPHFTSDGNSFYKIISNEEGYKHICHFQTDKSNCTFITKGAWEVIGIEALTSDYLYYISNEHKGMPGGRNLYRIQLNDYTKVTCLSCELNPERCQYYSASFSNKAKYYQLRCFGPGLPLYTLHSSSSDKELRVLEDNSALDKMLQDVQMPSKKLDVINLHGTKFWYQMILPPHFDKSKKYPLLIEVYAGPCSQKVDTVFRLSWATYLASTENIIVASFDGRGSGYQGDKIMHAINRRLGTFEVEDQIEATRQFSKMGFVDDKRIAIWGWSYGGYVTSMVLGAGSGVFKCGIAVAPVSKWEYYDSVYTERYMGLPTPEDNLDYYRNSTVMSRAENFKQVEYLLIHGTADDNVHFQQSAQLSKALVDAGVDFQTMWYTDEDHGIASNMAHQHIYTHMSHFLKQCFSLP
Procedure: Peptide (20 μg) DPP-4 degradation profiles (5 μl purified DPP-4, 5 mU; Sigma-Aldrich, UK) were assessed as described previously.
For calculation of experimental molecular masses, peptide samples (1 µg) were mixed with α-cyano-4-hydroxycinnamic acid (1 µg) and applied to a Voyager-DE BioSpectrometry Workstation and mass-to-charge (m/z) ratio verses peak intensity recorded by MALDI-TOF mass spectrometry. DPP-4 half-life was assessed by incubating peptides (37°C in 50 mmol/L TEA-HCl; pH 7.8) with 5 mU purified porcine DPP-4 for 0, 1, 2, 4, 8 and 12 h. Degradation profiles were obtained using rp-HPLC analysis and HPLC peak area data used to calculate percentage intact peptide remaining at each time point.

high-fat-fed mice [3] = assay: Glucose tolerance test after 21 day treatment; assay type: in vivo, mouse; settings: AUC 0–105 min after i.p. glucose 18 mmol/kg; 25 nmol/kg twice daily for 21 days; 18 h fasted high-fat-fed mice; mean ± SEM, 6–8 mice
Procedure: (§2) Twice-daily (09:30 and 17:30 hours) i.p. injections of saline vehicle, (DAla^2)GIP or (DAla^2)GIP/xenin-8-Gln hybrid (both at 25 nmol/kg) were administered for 21 days in high-fat-fed mice. Energy intake and body weight were monitored daily and non-fasting blood glucose and plasma insulin concentrations were assessed at 3 day intervals. On day 21, a non-fasted 24 h glucose profile was conducted. At the end of the treatment period, i.p. glucose tolerance (18 mmol/kg), biological response to GIP (18 mmol/kg glucose in combination with native GIP [25 nmol/kg], i.p.) and insulin sensitivity (15 U/kg; i.p.) tests were performed. Terminal analysis included measurement of total body fat and lean mass by dual-energy X-ray absorptiometry (DEXA) scanning (Piximus Densitometer; Inside Outside Sales, Fitchburg, WI, USA) and extraction of pancreatic tissue for analysis as detailed below.

high-fat-fed mice [4] = assay: Insulin sensitivity test after 21 day treatment; assay type: in vivo, mouse; settings: insulin 15 U/kg i.p., non-fasted high-fat-fed mice after 21 days at 25 nmol/kg twice daily
Procedure: as §2
Fig. 4 Effects of twice-daily administration of (DAla^2)GIP and (DAla^2)GIP/xenin-8-Gln on insulin sensitivity and pancreatic insulin content in high-fat-fed mice. […] Blood glucose was measured (a), area above the curve (AAC) was calculated using identical baseline subtraction for each group (b) and pancreatic insulin content was measured by RIA (c). […]

CC[C@H](C)[C@H](NC(=O)[C@H](CO)NC(=O)[C@H](Cc1ccc(O)cc1)NC(=O)[C@H](CC(=O)O)NC(=O)[C@H](CO)NC(=O)[C@@H](NC(=O)[C@H](Cc1ccccc1)NC(=O)[C@@H](NC(=O)CNC(=O)[C@H](CCC(=O)O)NC(=O)[C@@H](C)NC(=O)[C@@H](N)Cc1ccc(O)cc1)[C@@H](C)O)[C@@H](C)CC)C(=O)N[C@@H](C)C(=O)N[C@@H](CCSC)C(=O)N[C@@H](CC(=O)O)C(=O)N[C@@H](CCCCN)C(=O)N[C@H](C(=O)N[C@@H](Cc1c[nH]cn1)C(=O)N[C@@H](CCC(N)=O)C(=O)N[C@@H](CCC(N)=O)C(=O)N[C@@H](CC(=O)O)C(=O)N[C@@H](Cc1ccccc1)C(=O)N[C@H](C(=O)N[C@@H](CC(N)=O)C(=O)N[C@@H](Cc1c[nH]c2ccccc12)C(=O)N[C@@H](CC(C)C)C(=O)N[C@@H](CC(C)C)C(=O)N[C@@H](C)C(=O)N[C@@H](CCC(N)=O)C(=O)N[C@@H](CCCCN)C(=O)NCC(=O)N[C@@H](CCCCN)C(=O)N[C@@H](CCCCN)C(=O)N[C@@H](CC(N)=O)C(=O)N[C@@H](CC(=O)O)C(=O)N[C@@H](Cc1c[nH]c2ccccc12)C(=O)N[C@@H](CCCCN)C(=O)N[C@@H](Cc1c[nH]cn1)C(=O)N[C@@H](CC(N)=O)C(=O)N[C@H](C(=O)N[C@H](C(=O)N[C@@H](CCC(N)=O)C(=O)O)[C@@H](C)O)[C@@H](C)CC)C(C)C)[C@@H](C)CC [(DAla^2)GIP]
Effect on intracellular Ca^2+ concentrations (BRIN-BD11 cells [1]): Neither, (DAla^2)GIP, xenin-8-Gln nor (DAla^2)GIP/xenin-8-Gln had any effect | Peptide-mediated insulin secretion in presence of GIP receptor antagonist GIP(6-30)Cex-K^40[Pal] (BRIN-BD11 cells [2]; peptide 10^−6 mol/l, antagonist 10^−6 mol/l, 5.6 mmol/l glucose): completely annulled | Insulin release from BRIN-BD11 cells (BRIN-BD11 cells [2]; peptide 10^−8 mol/l, 5.6 or 16.7 mmol/l glucose, vs respective glucose controls): significant (p < 0.01 to p < 0.001) increase in insulin release | Stability when incubated in the presence of DPP-4 (purified porcine DPP-4): remained fully intact | Glucose tolerance test: Blood glucose AUC (high-fat-fed mice [3]): 1714.7 ± 138.6 mmol·min/L | Glucose tolerance test: Plasma insulin AUC (high-fat-fed mice [3]): 11,253 ± 1590 pmol/l × min | Individual blood glucose levels following exogenous insulin (high-fat-fed mice [4]): reduced, albeit non-significantly | Overall glucose-lowering effect of insulin (area above the curve) (high-fat-fed mice [4]; vs control high-fat mice): significantly (p < 0.001) improved
